The results in this text go back to patent publication US10844071B2, “Substituted [1,2,3]triazolo[4,5-d]pyrimidines that lower stress-induced p-tau” (BUCK INSTITUTE FOR RESEARCH ON AGING, priority 2015, dated 2020).

SMILES strings stand for the structures. In brackets after ≈: the same amount, converted by molar mass. Where a name gives a salt, the structure may show the parent alone. Read-outs that look alike come from different tables or passages of the source.

The subject of series [1] is SH-SY5Y cells. The experiment in a line: Primary screen in SH-SY5Y cells (tau, p-tau). Conditions: for Tau % / p-Tau (%): Primary (SH-SY5Y); for p-tau / tau: SH-SY5Y cells, no CRF. Type of series: cell-based. The method, then:
(§1) As described below, in vitro studies were performed using SHSY-5Y cells. These cells are a useful neurological model that differentiate into cells with morphological and biochemical characteristics of mature neurons including mature isoforms of tau.
However, J04 did lower p-tau to the same level as J03 and significant may not have been reached due to low N #.

The nature of the next series: Solubility in DMSO. Type of series: physicochemical.
Series [2] concerns SH-SY5Y cells. The experiment in a line: Secondary screen in SH-SY5Y cells with CRF stimulation (tau, p-tau, sAPPα). Type of series: cell-based. The method, then: as §1
In an initial study, SHSY-5Y cells were cultured without serum to induce differentiation and increase tau expression. […] The increases were proportional and both were about 50%. J03 (FIG. 4A) reduced the CRF-induced tau increases more than the p-tau increases. The increase in p-tau with CRF was expected, but the increase in tau less predictable as CRF reduces neuronal differentiation (see Chen et al. (2004) Proc. Natl. Acad. Sci. USA, 101(44): 15782-15787), however, it can increase tau accumulation.

The target in the next series is T1, CRF1 (Homo sapiens, UniProt P34998).
T1 sequence (P34998 24-415): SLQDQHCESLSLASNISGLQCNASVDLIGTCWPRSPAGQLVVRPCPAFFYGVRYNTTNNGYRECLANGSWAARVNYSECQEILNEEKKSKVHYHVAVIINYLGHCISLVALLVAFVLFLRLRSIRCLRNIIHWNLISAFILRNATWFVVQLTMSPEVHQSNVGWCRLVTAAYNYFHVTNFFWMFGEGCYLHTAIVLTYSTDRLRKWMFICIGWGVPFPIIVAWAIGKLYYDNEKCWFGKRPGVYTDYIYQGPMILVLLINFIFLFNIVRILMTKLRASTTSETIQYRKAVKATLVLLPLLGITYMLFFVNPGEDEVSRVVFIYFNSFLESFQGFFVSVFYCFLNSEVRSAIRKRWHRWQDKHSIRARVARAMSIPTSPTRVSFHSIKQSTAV
The experiment in a line: CRF1 binding (Ki). The following applies: Tertiary; read-out: CRF1 Ki.

Another series can be described thus: PAMPA. Type of series: in vitro ADME. The following applies: Tertiary. (PAMPA measures passive passage across an artificial lipid membrane.)
Series [3] can be described thus: In vivo pharmacokinetics, brain and plasma levels. Also noted: species or system mouse.
Another series relates to J20 mice. The experiment in a line: J17 pilot study in J20 mice (oral, 28 days). Type of series: in vivo, mouse. The method, then:
Animal experiments were performed using J20 mice. The J20 mouse is a model of for Alzheimer's disease. This model overexpresses human APP with two mutations linked to familial Alzheimer's disease (the APP KM670/671NL (Swedish) and […] (Indiana) mutations).
In a J17 pilot study (#1 pilot study) male and female J20 mice were housed singly and treated with J17 at 10 mkd by oral delivery for 28 days. […]

[4] abbreviates: Secondary (SH-Sy5Y, CRF stimulation).
The mark [5] stands for this setting: organic solvent or mixture, read-out: Solubility.
Setting [6] is: SH-SY5Y cells, CRF-induced increase.
Setting [7] is: subcutaneous injection of 10 mg/kg.

Regarding `CCC(COC)Nc1nc(C)nc2c1nnn2-c1ccc(OC)cc1C` (stereo not shown) [J17 HCl], in the series with SH-SY5Y cells [1], the Tau % result is given as “Unchanged” and the “p-Tau (%)” value is on record as “Unchanged”. Besides, in the series “Solubility in DMSO”, the solubility entry is given as “≈10 mM”.

As to `CCC(COC)n1nnc2c(Nc3ccc(F)cc3C)nc(C)nc21` (stereo not shown) [Compound J06], in the series on SH-SY5Y cells [2] (setting [4]), the “p-Tau (%)” value is “Unchanged”. Moreover, the Ki at CRF1 was more than 1000 nM. For the same compound, the Tau % result with SH-SY5Y cells [1] is on record as “Unchanged”. In addition, the solubility in “Solubility in DMSO” (setting [5]) is approximately 10 mM (≈ 3440 µg/mL).

In the case of `CCC(COC)n1nnc2c(N(C)C3CC3)nc(C)nc21` (stereo not shown) [Compound J11], in the series on SH-SY5Y cells [2] (setting [4]), the “sAPPα (%)” value is given as “Unchanged”. Moreover, the PAMPA in “PAMPA” was 0.94. In addition, the Ki at CRF1 was more than 1000 nM. Besides, the Tau % entry in the series on SH-SY5Y cells [1] is reported as “Unchanged”. In addition, in the series “Solubility in DMSO” (setting [5]), the solubility was approximately 10 mM (≈ 2900 µg/mL).

For the compound `CCC(COC)N(C)c1nc(C)nc2c1nnn2-c1ccc(OC)cc1C` (stereo not shown) [J20 HCl], in the series with SH-SY5Y cells [1], the Tau % entry is recorded as “Unchanged”. The solubility in “Solubility in DMSO” (setting [5]) is approximately 10 mM.

As to `CCC(COC)Nc1nc(C)nc2c1nnn2-c1ccc(OC)cc1C` (stereo not shown) [Compound J17], in the series with SH-SY5Y cells [2] (setting [6]), the “p-tau after CRF exposure” value was “decreased” and the “tau after CRF exposure” value was “decreased”. In addition, the “sAPPα after CRF exposure” value in the series on SH-SY5Y cells [2] (SH-SY5Y cells, FIG. 19) is “same as control”. Further, the “sAPPα (%)” value in the series on SH-SY5Y cells [2] (setting [4]) is listed as “Unchanged”. For the same compound, the “sAPPα with increasing concentrations of CRF” value in the series with SH-SY5Y cells [2] (without CRF and at 50 nM CRF, FIG. 20) is “lack of increase”. In addition, in series [3] (oral delivery, 10 mg/kg), the brain levels is given as approximately 50 ng/g and the “plasma levels relative to brain levels” value is on record as approximately 10 fold. In series [3] (setting [7]), this compound had a brain levels of approximately 400 ng/g and a plasma levels of approximately 4000 ng/m. The same compound had a PAMPA in the series “PAMPA” of 0.64. The Ki at CRF1 worked out at 30 nM. Moreover, in the series on SH-SY5Y cells [1], the p-tau result is listed as “significantly lower” and the tau result is listed as “significantly lower”. Besides, the solubility in the series “Solubility in DMSO” (setting [5]) is approximately 10 mM (≈ 3560 µg/mL). Moreover, the novel object preference entry with J20 mice (all mice) is on record as “increase with J17 was significant”. Moreover, in the series with J20 mice (both genders), the sAPPα entry is reported as “increase with J03 but not J17”. Also, in the series on J20 mice (males), the p-tau/tau ratio entry is “lower still and just missed significance”; the sAPPα/sAPPβ ratio entry is given as “greater”. Further, the “activity (total interactions)” value in the series with J20 mice (not significant) is “lowered”. Also, the sAPPβ entry in the series with J20 mice (one high outlier eliminated) was “decrease”.

For `CCC(COC)n1nnc2c(N(C)c3c(C)cc(C)cc3C)nc(C)nc21` (stereo not shown) [Compound J14], in the series “PAMPA”, the PAMPA was found to be 1.11. In addition, the Ki at CRF1 is 25 nM. The Tau % result in the series with SH-SY5Y cells [1] is recorded as “Unchanged”. Besides, the solubility in “Solubility in DMSO” (setting [5]) is approximately 10 mM (≈ 3680 µg/mL).

Regarding `CCC(COC)n1nnc2c(N3CCCC3)nc(C)nc21` (stereo not shown) [Compound J10], in the series with SH-SY5Y cells [1], the Tau % result was “Unchanged” and the “p-Tau (%)” value is reported as “Unchanged”. In addition, the solubility in “Solubility in DMSO” (setting [5]) was approximately 10 mM (≈ 2900 µg/mL).

For the compound `CCC(COC)n1nnc2c(N3CC(C)CC(C)C3)nc(C)nc21` (stereo not shown) [Compound J12], in the series on SH-SY5Y cells [2] (setting [4]), the “sAPPα (%)” value is “Unchanged”. The PAMPA in “PAMPA” stood at 2.39. The inhibition constant (Ki) at CRF1 was more than 1000 nM. Further, in “Solubility in DMSO” (setting [5]), the solubility was approximately 10 mM (≈ 3320 µg/mL).

For `CCC(COC)n1nnc2c(Nc3ccc(Cl)cc3C)nc(C)nc21` (stereo not shown) [Compound J08], the “sAPPα (%)” value with SH-SY5Y cells [2] (setting [4]) is reported as “Unchanged”. This compound gave a PAMPA in the series “PAMPA” of 1.27. On CRF1, the Ki amounted to 15 nM. Further, the Tau % entry in the series on SH-SY5Y cells [1] is given as “Unchanged”. For the same compound, in “Solubility in DMSO” (setting [5]), the solubility was approximately 10 mM (≈ 3610 µg/mL).

The compound `CCC(COC)n1nnc2c(Nc3ccc(OC)cc3C)nc(C)nc21` (stereo not shown) [Compound J04] came in with a brain levels in series [3] (after SQ injection or oral delivery) of 55 ng/g. In addition, the PAMPA in the series “PAMPA” is recorded as 0.44. The inhibitory constant (Ki) on CRF1 worked out at 15 nM. For the same compound, in the series with SH-SY5Y cells [1], the Tau % entry is reported as “Unchanged”; the p-tau entry is on record as “did lower p-tau, although not significantly”; the tau entry is “did not lower”. Further, in the series “Solubility in DMSO” (setting [5]), the solubility is approximately 10 mM (≈ 3560 µg/mL).

On to `CCC(COC)n1nnc2c(Nc3ccc(F)cc3F)nc(C)nc21` (stereo not shown) [Compound J07], for which the PAMPA in “PAMPA” turned out to be 0.72. In addition, on CRF1, the Ki was more than 1000 nM. Also, the solubility in “Solubility in DMSO” (setting [5]) was approximately 10 mM (≈ 3480 µg/mL).

`CCC(COC)n1nnc2c(N(C)C3CCOCC3)nc(C)nc21` (stereo not shown) [Compound J15]: in the series on SH-SY5Y cells [2] (setting [4]), the Tau % result is reported as “↓>30%”, the “p-Tau (%)” value is reported as “↓>30%” and the “sAPPα (%)” value is given as more than 10%. For the same compound, in “PAMPA”, the PAMPA came out at 0.34. Also, at CRF1, the Ki is more than 1000 nM. Besides, in the series with SH-SY5Y cells [1], the Tau % entry is reported as “Unchanged” and the “p-Tau (%)” value was “↓>10%”. The solubility in the series “Solubility in DMSO” (setting [5]) is approximately 10 mM (≈ 3340 µg/mL).

For `CCC(COC)n1nnc2c(Nc3ccc(OC)cc3OC)nc(C)nc21` (stereo not shown) [Compound J09], the Tau % entry in the series on SH-SY5Y cells [1] is on record as “Unchanged”. Besides, the solubility in the series “Solubility in DMSO” (setting [5]) is approximately 10 mM (≈ 3720 µg/mL).

In turn, `CCC(COC)n1nnc2c(Nc3ccc(C)cc3C)nc(C)nc21` (stereo not shown) [Compound J05] returned a PAMPA in the series “PAMPA” of 0.99. Moreover, the solubility in “Solubility in DMSO” (setting [5]) was approximately 10 mM (≈ 3400 µg/mL).

For `CCC(COC)Nc1nc(C)nc2c1nnn2-c1ccc(Cl)cc1C` (stereo not shown) [Compound J19, 3-(4-Chloro-2-methylphenyl)-N-(1-methoxybutan-2-yl)-5-methyl-3H-[1,2,3]triazolo[4,5-d]pyrimidin-7-amine], in the series on SH-SY5Y cells [2] (50 and 100 nM CRF, FIG. 28 panel C), the p-tau/tau ratios entry is “highly significantly decreased”. Moreover, the sAPPα result with SH-SY5Y cells [2] (FIG. 28 panel D, significance for J03 at 100 nM CRF) was “trend for sAPPα to be higher”. In the series on SH-SY5Y cells [2] (setting [4]), the “sAPPα (%)” value is “Unchanged”. Also, the tau result in the series on SH-SY5Y cells [2] (absence of CRF and presence of 100 nM CRF, FIG. 28 panel A) is on record as “trend to decrease”; in the series on SH-SY5Y cells [1], “decreased”. The p-tau entry in the series on SH-SY5Y cells [2] (presence and absence of CRF, FIG. 28 panel B) is “significantly reduced”; in the series with SH-SY5Y cells [1], “decreased”. Moreover, the “brain levels at the peak” value in series [3] (SQ injection at 10 mkd) was approximately 190 ng/g. For the same compound, the “time of peak brain level after injection” value in series [3] (SQ injection at 10 mkd) turned out to be 4 h. The “brain levels with oral delivery compared to SQ” value in series [3] (oral delivery, detectable from 1 to 6 hours) is on record as “much lower”. In “PAMPA”, the PAMPA came out at 0.75. Also, the p-tau/tau ratio entry in the series with SH-SY5Y cells [1] (FIG. 29) is listed as “unchanged”. In addition, the solubility in the series “Solubility in DMSO” (setting [5]) was approximately 10 mM (≈ 3610 µg/mL).

Usually solubility stands for the concentration that dissolves in the medium under given conditions. Broadly, the Ki is the dissociation constant of the complex between target and ligand, obtained from inhibition or displacement.
